{"source": "paper PMC8659057", "about": "“Chemical Constituents from the Wild Atractylodes macrocephala Koidz and Acetylcholinesterase Inhibitory Activity Evaluation as Well as Molecular Docking Study” (Molecules, 2021)", "molecular_target": "acetylcholinesterase (AChE, Type VI-S, from electric eel) (Electrophorus electricus, UniProt O42275)", "sequence (O42275 24-633)": "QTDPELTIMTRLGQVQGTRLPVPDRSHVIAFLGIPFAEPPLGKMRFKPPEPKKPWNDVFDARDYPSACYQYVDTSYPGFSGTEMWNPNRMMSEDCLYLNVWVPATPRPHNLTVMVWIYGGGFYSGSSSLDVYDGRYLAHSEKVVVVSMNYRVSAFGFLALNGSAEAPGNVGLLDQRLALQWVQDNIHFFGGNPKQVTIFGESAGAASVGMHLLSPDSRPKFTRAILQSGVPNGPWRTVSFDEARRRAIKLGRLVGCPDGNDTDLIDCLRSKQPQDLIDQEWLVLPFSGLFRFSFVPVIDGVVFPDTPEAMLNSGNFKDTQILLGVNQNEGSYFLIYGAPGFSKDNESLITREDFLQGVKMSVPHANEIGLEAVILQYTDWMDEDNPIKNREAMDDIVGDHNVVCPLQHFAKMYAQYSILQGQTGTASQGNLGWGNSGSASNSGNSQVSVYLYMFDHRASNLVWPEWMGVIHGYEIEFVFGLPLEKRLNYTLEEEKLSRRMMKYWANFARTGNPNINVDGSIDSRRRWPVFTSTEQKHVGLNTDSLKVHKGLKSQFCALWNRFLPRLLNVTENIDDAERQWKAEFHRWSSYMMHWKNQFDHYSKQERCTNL", "assay": "modified Ellman colorimetric AChE inhibition assay", "format": "biochemical", "note": "Where two headings read alike, the source gives them in different places.", "data": [{"smiles": "C=C1C(OC(C)=O)CCC2(C)CC3(C45CC6(C)CCC(OC(C)=O)C(=C)C6CC4=C(C)C(=O)O5)OC(=O)C(C)=C3CC12", "note": "(centres unmarked) [compound 5, biatractylenolide II]", "values": [{"measurement": "IC50", "result": 33.9, "unit": "µM"}]}, {"smiles": "C=C1CCC[C@]2(C)C[C@]3(O)OC(=O)C(C)=C3C[C@@H]12", "note": "[compound 1, atractylenolide III]", "values": [{"measurement": "IC50", "setting": "read-out: IC50 (converted)", "result": 247, "unit": "µM"}]}]}
